Patent US7244754B2, “2-methylthiazolidine-2,4-dicarboxylic acid and salts thereof for treatment of neurodegenerative diseases” (priority 2002, dated 2007)

Tests used:
MNRI mice = assay: Apoplexy model: occlusion of the middle cerebral artery in mice, infarction surface by neutral red staining; format: in vivo; details: application after or before occlusion, as in examples 3 and 4
Source text: In another animal experiment model (apoplexy model) it could be shown (examples 3 and 4) that 2-MTDC as well as salts of 2-MTDC have a cerebroprotective effect.
The following test series deals with the examination of the neuroprotective effect of 2-MTDC-Na in application of 2-MTDC-Na after the ischemia.
Per test group 13 through 16 MNRI mice were employed. The middle cerebral artery of the mice was occluded according to the method of Welsh (F. A. Welsh, T. Sakamoto, A. E. McKee, R. E. Sims, J. Neurochem. 1987, 49, 846-851). For that purpose the mice are anesthetized with tribromoethanol (600 mg/kg body weight, intraperitoneally). Immediately after the anesthesia a small cavity was drilled into the mice cranium to lay open the middle cerebral artery. The strain as well as both arms of the middle cerebral artery were occluded via electro coagulation. Meanwhile the blood heat of the mice was kept on 37° C.±1° C. by utilizing a heating lamp. Subsequently the mice were kept at a surrounding temperature of 30° C. for another 2 h.
One group of mice was injected intraperitoneally 2-MTDC-Na (200 mg/kg 2-MTDC-Na dissolved in 0.9% NaCl solution) 15 minutes after and another group 60 minutes after the occlusion of the middle cerebral artery. A third group received the vehicle only (0.9% NaCl solution without 2-MTDC-Na).
For the following histologic examination 2 days after the occlusion of the middle cerebral artery the mice were anesthetized again with tribromoethanol and received intraperitoneally applied 0.5 ml of a 1.5% solution of neutral red (toluylene red, Acros Chimica) in addition. The brains were extracted and kept for 24 h in a fixative solution (4% formalin with phosphate buffer at pH 7.4).
The tissue on the surface of the brain which was not colored by neutral red was measured as surface region affected by infarction under utilizing a color analysis system (Kontron, Eching, Germany) (C. Backhauβ, C. Karkoutly, M. Welsh, J. Krieglstein, J. Pharmacol Toxicol Methods, 1992, 27 (2), 27-32).
The execution of the test according to example 3 was repeated whereas 2-MTDC-Na was applied one hour before the occlusion of the middle cerebral artery (MCA-O: occlusion of the middle cerebral artery).

dopaminergic neurons = assay: Intrastriatal sodium malonate lesion in rats; transmitters and metabolites in striatum and substantia nigra by HPLC; format: in vivo, Wistar rats; details: for activity of dopaminergic neurons (3-methoxytyramine concentration): lysine salt injected intraperitoneally four to five days before measuring, rats
striatum of rats = details: seven days after injecting the malonate; cited from earlier work

Which “infarction extent induced by occlusion of the cerebral artery (test series of examples 3 and 4)” value (“infarction extent induced by occlusion” for short) (MNRI mice) does the source give for CC1(C(=O)O)N[C@H](C(=O)O)CS1 (mixture of isomers) [2-MTDC, (2RS,4R)-2-methylthiazolidine-2,4-dicarboxylic acid] here?
The value was “capable of reducing the infarction extent”.

With CC1(C(=O)O)NC(C(=O)O)CS1.NCCCCC(N)C(=O)O.NCCCCC(N)C(=O)O (centres unmarked) [2-MTDC-lys] as the compound, how does the “influence on the concentration of dopamine, DOPAC, HVA” value (dopaminergic neurons; 2-MTDC-lys solely (no malonate), 2x0.8 mmol/kg i.p., four days after last application) read?
Its value is “no influence”.

And the “effect on dopaminergic versus serotonergic neurons (5-HT, 5-HIAA)” value (dopaminergic neurons; chosen dose rate, examination period of four days from last application)?
The value was “affects obviously dopaminergic neurons but not serotonergic neurons”.

And the “activity of dopaminergic neurons (3-methoxytyramine concentration)” value (dopaminergic neurons)?
The value was “long persistent activation”.

What about the “activity of dopaminergic neurons (3-methoxytyramine concentration)” value (dopaminergic neurons; listed as lysine salt of 2-MTDC) of the same compound?
Its value is “intense activation of the dopaminergic neurons”.

And the “effect of malonate on the reduction of dopamine and dopamine metabolite concentrations (neuroprotection)” value (dopaminergic neurons; pretreatment 2x0.8 mmol/kg i.p., 2 μmol sodium malonate into left striatum, four days after last application)?
The value was “prevents the toxic effect of malonate”.

And the “neurodegeneration of nerve ends in the striatum and cell bodies in the substantia nigra” value (dopaminergic neurons; treatment before malonate (prophylactic))?
The value was “prevents the neurodegeneration”.

What about the “infarction extent induced by occlusion” value (MNRI mice; listed as lysine salts of 2-MTDC) of the same compound?
The value was “capable of reducing the infarction extent”.

Which “infarction extent induced by occlusion” value (MNRI mice) does the source give for C[C@@]1(C(=O)O)N[C@H](C(=O)O)CS1 [(2R,4R)-2-methylthiazolidine-2,4-dicarboxylic acid] here?
Its value is “capable of reducing the infarction extent”.

Which “infarction extent induced by occlusion” value (MNRI mice) does the source give for C[C@]1(C(=O)O)N[C@H](C(=O)O)CS1 [(2S,4R)-2-methylthiazolidine-2,4-dicarboxylic acid] here?
Its value is “capable of reducing the infarction extent”.

Which “concentration of dopamine in the striatum compared to the contralateral striatum” value (striatum of rats) does the source give for O=C([O-])CC(=O)[O-].[Na+].[Na+] [malonate, sodium malonate] here?
The value was 6%.
